Measured values reported in patent US4450279A, “Dialkylthioxanthones” (priority 1981, dated 1984).
Converted amounts (≈) assume the structure as drawn. Read-outs that look alike come from different tables or passages of the source.

How the values were obtained:
[1] = Yellowing resistance of coating film after irradiation, estimated visually; set-up: key: A: Only slight yellowing; B: Clear yellowing; C: Remarkable yellowing
From the text: The above photopolymerizable resin composition was applied to a glass plate in a thickness of 25μ and left 9 cm below a xenone lamp. The sensitivity was judged by measuring the time until the surface of the coated film ceases to be sticky (whether the coated film is sticky or not is judged by the touch with finger) under the continuous irradiation.
*^1 Yellowing resistance in the above table was estimated
visually from the state of the coating film after the

[2] = Hardening time of photopolymerizable resin film under continuous xenon lamp irradiation (until surface ceases to be sticky)
From the text: Bisphenol A diglycidyl ether diacrylate
(§1) Trimethylolpropane triacrylate
Triethanolamine 2.5 parts by weight
Photopolymerization initiator of formula (I)
(dialkylthioxanthone derivative)
Irradiation device and conditions: […]

[3] = unsubstituted thioxanthone, background; cited from earlier work
[4] = dispersed in resin, storage for a long period; background; cited from earlier work
[5] = Solubility in organic solvents; assay type: physicochemical; conditions: organic solvent or mixture
[6] = Yellowing resistance of pigmented coating film; set-up: key: A: Only slight yellowing; B: Clear yellowing; C: Remarkable yellowing; conditions: Table V; composition (B), titanium oxide; same criteria as Table II
Experimental: (§2) The following photopolymerizable resin compositions (A) and (B) were prepared. Each of the compositions was applied to an aluminum plate in a thickness of 25μ. The aluminum plate was placed on a belt conveyer moving 20 cm below an 80 W/cm high-pressure mercury lamp at a speed of 18 m/min. Relationship between the number of passage times and physical properties of the coating film was examined to obtain the results shown in Table V.
(§3) (B) Titanium oxide-containing
(§4) Urethane acrylate resin
as §1
(§5) Butyl acrylate 18.8 parts by weight
(§6) Vinylpyrrolidone 9.4 parts by weight
(§7) Titanium oxide (rutile type)
(§8) Methyldiethanolamine 1.5 parts by weight
(§9) Photopolymerization initiator of
*^3 Yellowing resistance was estimated based on the same criteria as i

[7] = Pencil hardness of pigmented coating film after passing under high-pressure mercury lamp (JIS K 5400); conditions: for Pencil hardness after passing 3 times / Pencil hardness after passing 5 times: composition (A), carbon black; for Pencil hardness after passing 3 times: 3 passages; for Pencil hardness after passing 5 times: 5 passages; for Pencil hardness after passing 6 times: composition (B), titanium oxide, 6 passages
Experimental: as §2
(A) Carbon black-containing composition:
Epoxy acrylate resin (Shell
as §1
Hexanediol diacrylate 14.8 parts by weight
Carbon black 2.5 parts by weight
Methyldiethanolamine 2.0 parts by weight
as §9, §3, §4, §5, §6, §7, §8
*^2 Pencil hardness was determined according to JISK 5400 6, 14.

[8] = Hardening of trifunctional maleimide photopolymerizable resin film under high-pressure mercury lamp; conditions: 2.5 parts per 100 parts resin; 50μ on glass; 80 W/cm Hg lamp, 10 cm, 20 sec
Experimental: 16 Parts of diglycerol triglycidyl ether, 23 parts by weight of α-phenylmaleimidoacetic acid, 0.2 part by weight of dimethylaminoethyl methacrylate and 40 parts by weight of butyl acetate were reacted together at 90°-100° C. for 2 h to obtain a trifunctional photopolymerizable resin in which α-phenylmaleimidoacetic acid was added to substantially all glycidyl groups. 2.5 Parts by weight of 2,4-diisopropylthioxanthone of the present invention was added to 100 parts by weight of the above resin and the whole was kneaded thoroughly and applied onto a glass plate in a thickness of 50μ. […] In case 2,4-diisopropylthioxanthone was not added, the film was not hardened even after 60 min.

[9] = Table III, Control Example 1, same criteria as Table II
[10] = 1,2-dichloroethane, read-out: Solubility, 1,2-Dichloroethane
[11] = 1,2-dichloropropane, read-out: Solubility, 1,2-Dichloropropane
[12] = acetone, read-out: Solubility, Acetone
[13] = ethanol, read-out: Solubility, Ethanol
[14] = ethyl acetate, read-out: Solubility, Ethyl acetate
[15] = methanol, read-out: Solubility, Methanol
[16] = toluene, read-out: Solubility, Toluene
[17] = Table II, visual, after irradiation
[18] = Table II, 2.5 parts initiator, 2.5 parts triethanolamine, 25μ film on glass, xenon lamp 9 cm

Compound: CCc1ccc(CC)c2c(=O)c3ccccc3sc12 [1,4-Diethylthioxanthone]
- Yellowing resistance [1, 9]: A
- Hardening time ([2]; Table III, Control Example 1): 50 s

Compound: CC(C)c1ccc(C(C)C)c2c(=O)c3ccccc3sc12 [1,4-Diisopropylthioxanthone]
- Yellowing resistance [1, 9]: A
- Hardening time ([2]; Table III, Control Example 1): 50 s

Compound: Cc1ccc(C)c2c(=O)c3ccccc3sc12 [1,4-Dimethylthioxanthone]
- Yellowing resistance [1, 9]: B
- Hardening time ([2]; Table III, Control Example 1): 40 s

Compound: CCc1c(C(C)C)ccc2sc3ccccc3c(=O)c12 [1-Ethyl-2-isopropylthioxanthone]
- Yellowing resistance [1, 9]: A
- Hardening time ([2]; Table III, Control Example 1): 50 s

Compound: CCc1ccc2sc3ccccc3c(=O)c2c1C [1-Methyl-2-ethylthioxanthone]
- Hardening time ([2]; Table III, Control Example 1): > 60 s

Compound: CCc1ccc(C)c2c(=O)c3ccccc3sc12 [1-Methyl-4-ethylthioxanthone]
- Yellowing resistance [1, 9]: B
- Hardening time ([2]; Table III, Control Example 1): 50 s

Compound: O=c1c2ccccc2sc2ccccc12 [Compound 1, thioxanthone]
- Solubility in and compatibility with photopolymerizable compound [3]: poor solubility
- Hardening time ([2]; Table III, Control Example 1): > 60 s
- Crystallization during storage [4]: crystallizes out during the storage for a long period of time
- solubility [5, 10]: 11 mg/mL (≈ 51.8 mM)
- solubility [5, 11]: < 5 mg/mL
- solubility [5, 12]: < 5 mg/mL
- solubility [5, 13]: < 5 mg/mL
- solubility [5, 14]: 5 mg/mL (≈ 23.6 mM)
- solubility [5, 15]: < 5 mg/mL
- solubility [5, 16]: < 5 mg/mL

Compound: Cc1ccc2sc3ccccc3c(=O)c2c1 [Compound 2, 2-methylthioxanthone]
- solubility [5, 10]: 166 mg/mL (≈ 734 mM)
- solubility [5, 11]: 77 mg/mL (≈ 340 mM)
- solubility [5, 12]: 30 mg/mL (≈ 133 mM)
- solubility [5, 13]: < 10 mg/mL
- solubility [5, 14]: 29 mg/mL (≈ 128 mM)
- solubility [5, 15]: < 10 mg/mL
- solubility [5, 16]: 55 mg/mL (≈ 243 mM)

Compound: CC(C)c1ccc2sc3ccccc3c(=O)c2c1 [Compound 3, 2-isopropylthioxanthone]
- solubility [5, 10]: > 500 mg/mL
- solubility [5, 11]: > 500 mg/mL
- solubility [5, 12]: 300 mg/mL (≈ 1180 mM)
- solubility [5, 13]: 36 mg/mL (≈ 142 mM)
- solubility [5, 14]: 300 mg/mL (≈ 1180 mM)
- solubility [5, 15]: 33 mg/mL (≈ 130 mM)
- solubility [5, 16]: > 500 mg/mL

Compound: CCc1cc(CC)c2sc3ccccc3c(=O)c2c1 [Example 1, 2,4-diethylthioxanthone]
- Yellowing resistance [6]: A
- Yellowing resistance [1, 17]: A
- Hardening time [2, 18]: 15 s
- Pencil hardness after passing 3 times [7]: 3H
- Pencil hardness after passing 5 times [7]: 6H
- Pencil hardness after passing 6 times [7]: 3H

Compound: CC(C)c1cc(C(C)C)c2sc3ccccc3c(=O)c2c1 [Example 2, 2,4-diisopropylthioxanthone]
- Yellowing resistance [6]: A
- Yellowing resistance [1, 17]: A
- Hardened coating film [8]: coating film insoluble in dichloroethane or acetone
- Hardening time [2, 18]: 10 s
- solubility [5, 10]: > 500 mg/mL
- solubility [5, 11]: > 500 mg/mL
- solubility [5, 12]: > 400 mg/mL
- solubility [5, 13]: 90 mg/mL (≈ 304 mM)
- solubility [5, 14]: > 500 mg/mL
- solubility [5, 15]: 60 mg/mL (≈ 202 mM)
- solubility [5, 16]: > 500 mg/mL
- Pencil hardness after passing 3 times [7]: 4H
- Pencil hardness after passing 5 times [7]: ≥ 6H
- Pencil hardness after passing 6 times [7]: 4H

Compound: Cc1cc(C(C)(C)C)cc2c(=O)c3ccccc3sc12 [Example 5, m-tert-butylmethyl thioxanthone]
- Yellowing resistance [1, 17]: A
- Hardening time [2, 18]: 15 s

Compound: CC(C)(C)c1cc(C(C)(C)C)c2sc3ccccc3c(=O)c2c1 [Example 10, 2,4-di-tert-butylthioxanthone]
- Yellowing resistance [1, 17]: A
- Hardening time [2, 18]: 25 s

Compound: CC(C)c1ccc2sc3ccccc3c(=O)c2c1 [Isopropylthioxanthone]
- Yellowing resistance [1, 9]: B
- Hardening time ([2]; Table III, Control Example 1): 20 s

Compound: Ethylthioxanthone
- Yellowing resistance [1, 9]: C
- Hardening time ([2]; Table III, Control Example 1): 40 s

Compound: Methylthioxanthone
- Yellowing resistance [1, 9]: C
- Hardening time ([2]; Table III, Control Example 1): 40 s
